Key:
BV-2 = experiment: Antineuroinflammatory activity in mouse BV2 cells assessed as inhibition of LPS-induced nitric oxide production after 24 hrs by Griess assay; assay type: functional, cell-based; conditions: BV-2, 24 h
[1] = Cytotoxicity against LPS-treated mouse BV2 cells assessed as cell viability at 20 uM relative to control; assay type: cell-based, BV-2; conditions: read-out: Activity

| SMILES | IC50 (BV-2) | viability at 20 µM [1] |
| --- | --- | --- |
| O=C(/C=C/C=C/c1ccc(O)c(O)c1)CCc1ccc(O)c(O)c1 | 7.84 µM | 24.6% |
| COc1cc(CC[C@H]2C[C@@H](O)C[C@@H](c3ccc(O)c(OC)c3)O2)ccc1O | 95.1 µM | 109% |
| COc1cc(CC[C@H]2C[C@H](O)C[C@@H](c3ccc(O)c(OC)c3)O2)ccc1O | 45.9 µM | 116% |
| Oc1ccc(CC[C@H]2C[C@@H](O)C[C@@H](c3ccc(O)cc3)O2)cc1 | 39.7 µM | 96.8% |
| Oc1ccc(CC[C@H]2C[C@H](O)C[C@@H](c3ccc(O)cc3)O2)cc1 | 38.1 µM | 95.6% |
| Oc1ccc(/C=C/[C@H]2C[C@H](O)C[C@@H](c3ccc(O)cc3)O2)cc1 | 18.6 µM | 91.4% |
| COc1cc(/C=C/C(=O)/C=C/c2ccc(O)cc2)ccc1O | 5.99 µM | 25.5% |
| COc1ccc(/C=C/C=C/C(=O)CCc2ccc(O)cc2)cc1 | 8.44 µM | 18.5% |
| O=C(/C=C/C=C/c1ccc(O)c(O)c1)CCc1ccc(O)cc1 | 14.4 µM | 104% |
| O=C(/C=C/c1ccc(O)cc1)C[C@H](O)CCc1ccc(O)cc1 | 57.1 µM | 99.4% |
| COc1cc(CC[C@@H](O)C[C@H](O)CCc2ccc(O)c(O)c2)ccc1O | 89.7 µM | 99.2% |
| COc1cc(/C=C/C=C/C(=O)CCc2ccc(O)cc2)ccc1O | 13.4 µM | 115% |
| CNC(=N)NCCC[C@H](N)C(=O)O [TILARGININE] |  | 103% |
